Laboratory results as given in ChEMBL document CHEMBL3856198, “Synthesis of novel 17-(4'-formyl)pyrazolylandrosta-5,16-dienes and their derivatives as potent 17α-hydroxylase/C17,20-lyase inhibitors or antiproliferative agents depending on the substitution pattern of the heteroring” (Eur J Med Chem, 2016).

Assays:
[1] = Growth inhibition of human MCF7 cells at 10 uM after 72 hrs by MTT assay; format: functional; details: MCF7, 72 h, read-out: GI
[2] = Growth inhibition of human MCF7 cells at 30 uM after 72 hrs by MTT assay; format: functional; details: MCF7, 72 h, read-out: GI
[3] = Growth inhibition of human T47D cells at 10 uM after 72 hrs by MTT assay; format: functional; details: read-out: GI
[4] = Growth inhibition of human T47D cells at 30 uM after 72 hrs by MTT assay; format: functional; details: read-out: GI
[5] = Growth inhibition of human MDA-MB-231 cells at 10 uM after 72 hrs by MTT assay; format: functional; details: MDA-MB-231, 72 h, read-out: GI
[6] = Growth inhibition of human MDA-MB-231 cells at 30 uM after 72 hrs by MTT assay; format: functional; details: MDA-MB-231, 72 h, read-out: GI
[7] = Growth inhibition of human MDA-MB-231 cells after 72 hrs by MTT assay; format: functional, cell-based; details: MDA-MB-231, 72 h
[8] = Growth inhibition of human MDA-MB-361 cells at 10 uM after 72 hrs by MTT assay; format: functional; details: MDA-MB-361, 72 h, read-out: GI
[9] = Growth inhibition of human MDA-MB-361 cells at 30 uM after 72 hrs by MTT assay; format: functional; details: MDA-MB-361, 72 h, read-out: GI
[10] = Growth inhibition of human MDA-MB-361 cells after 72 hrs by MTT assay; format: functional, cell-based; details: MDA-MB-361, 72 h
[11] = molecular target: T1, Steroid 17-alpha-hydroxylase/17,20 lyase (Rattus norvegicus, UniProt P11715); assay: Inhibition of Wistar rat testicular C17,20-lyase assessed as androst-4-ene-3,17-dione formation using [3H]17-hydroxyprogesterone as substrate in presence of NADPH
T1 sequence (P11715 whole entry): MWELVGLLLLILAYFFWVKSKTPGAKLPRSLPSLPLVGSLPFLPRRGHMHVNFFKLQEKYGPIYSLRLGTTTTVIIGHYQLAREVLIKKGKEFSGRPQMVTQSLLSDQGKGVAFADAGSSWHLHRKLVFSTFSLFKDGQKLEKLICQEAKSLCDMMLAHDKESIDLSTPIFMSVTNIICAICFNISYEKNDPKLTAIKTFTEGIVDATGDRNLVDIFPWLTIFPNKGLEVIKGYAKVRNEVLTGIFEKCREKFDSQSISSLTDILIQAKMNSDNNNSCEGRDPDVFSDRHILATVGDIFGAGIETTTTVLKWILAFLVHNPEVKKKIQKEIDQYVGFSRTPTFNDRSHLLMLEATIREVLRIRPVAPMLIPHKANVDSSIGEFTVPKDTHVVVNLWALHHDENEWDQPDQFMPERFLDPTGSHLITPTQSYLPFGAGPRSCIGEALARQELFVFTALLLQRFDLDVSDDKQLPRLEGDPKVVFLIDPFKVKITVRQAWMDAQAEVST

[12] = molecular target: T1, Steroid 17-alpha-hydroxylase/17,20 lyase; assay: Potency index, ratio of ketoconazole IC50 to compound IC50 for Wistar rat testicular C17,20-lyase
[13] = Growth inhibition of human MCF7 cells after 72 hrs by MTT assay; format: functional, cell-based; details: MCF7, 72 h
[14] = Growth inhibition of human T47D cells after 72 hrs by MTT assay; format: functional, cell-based

IC50 [11] [µM] | SMILES | inhibition of growth at 10 µM [1] [%] | inhibition of growth at 30 µM [2] [%] | inhibition of growth at 10 µM [3] [%] | inhibition of growth at 30 µM [4] [%] | inhibition of growth at 10 µM [5] [%] | inhibition of growth at 30 µM [6] [%] | IC50 [7] [µM] | inhibition of growth at 10 µM [8] [%] | inhibition of growth at 30 µM [9] [%] | IC50 [10] [µM] | Ratio IC50 [12] | IC50 [13] [µM] | IC50 [14] [µM]
– | C[C@]12CC[C@H](O)CC1=CC[C@@H]1[C@@H]2CC[C@]2(C)C(c3nn(-c4ccc(Br)cc4)cc3CO)=CC[C@@H]12 | 65.9 | 86.9 | 68.2 | 85.9 | 76.8 | 88.2 | 4 | 83.5 | 91.5 | 2 | – | – | –
0.026 | C[C@]12CC[C@H](O)CC1=CC[C@@H]1[C@@H]2CC[C@]2(C)C(c3n[nH]cc3CO)=CC[C@@H]12 | < 20 | < 20 | < 20 | 25.7 | < 20 | < 20 | – | < 20 | 35.6 | – | 12 | – | –
– | C[C@]12CC[C@H](O)CC1=CC[C@@H]1[C@@H]2CC[C@]2(C)C(c3nn(-c4ccccc4)cc3CO)=CC[C@@H]12 | 79.2 | 89.8 | 74.4 | 90.6 | 85.2 | 93.2 | 5.2 | 90.6 | 96.1 | 2.1 | – | 3.4 | –
0.0077 | C[C@]12CC[C@H](O)CC1=CC[C@@H]1[C@@H]2CC[C@]2(C)C(c3ccn[nH]3)=CC[C@@H]12 | – | – | – | – | – | – | – | – | – | – | – | – | –
0.092 | C[C@]12CC[C@H](O)CC1=CC[C@@H]1[C@@H]2CC[C@]2(C)C(c3n[nH]cc3C#N)=CC[C@@H]12 | 36.6 | 63.4 | 46.8 | 75.7 | 23.3 | 88.4 | – | 46.6 | 80.4 | – | – | – | –
– | C[C@]12CC[C@H](O)CC1=CC[C@@H]1[C@@H]2CC[C@]2(C)C(c3cccnc3)=CC[C@@H]12 [ABIRATERONE] | 12.4 | 74.7 | 32.5 | 70.8 | 14.3 | 85 | 19.2 | 32.2 | 61.2 | 20.4 | – | 19.3 | 16.9
– | COc1ccc(-n2cc(C=O)c(C3=CC[C@H]4[C@@H]5CC=C6C[C@@H](O)CC[C@]6(C)[C@H]5CC[C@]34C)n2)cc1 | 92.3 | 98.1 | 92.5 | 96.7 | 96.1 | 96.2 | 3.6 | 89.6 | 96.2 | 3.3 | – | 3.8 | 3.7
0.066 | C[C@]12CC[C@H](O)CC1=CC[C@@H]1[C@@H]2CC[C@]2(C)C(c3n[nH]cc3C=O)=CC[C@@H]12 | 31.4 | 80.8 | 43.2 | 77 | 54.3 | 93.7 | – | 42.6 | 79.7 | – | – | – | –
